Assay results taken from patent US11051515B2, “3-acyl-benzamides and their use as herbicides” (Bayer Aktiengesellschaft, priority 2017, dated 2021).

How the values were obtained:
VIOTR [1] = assay: Post-emergence action against VIOTR; format: in vivo, Viola tricolor; details: post-emergence, dosage 80 g/ha
Description: (§1) Seeds of monocotyledonous and dicotyledonous weed and crop plants are laid out in sandy loam soil in wood-fiber pots, covered with soil and cultivated in a greenhouse under good growth conditions. 2 to 3 weeks after sowing, the test plants are treated at the one-leaf stage. The compounds of the invention, formulated in the form of wettable powders (WP) or as emulsion concentrates (EC), are then sprayed onto the green parts of the plants in the form of an aqueous suspension or emulsion at a water application rate equating to […], with addition of 0.2% wetting agent. After the test plants have been left to stand in the greenhouse under optimal growth conditions for about 3 weeks, the action of the preparations is assessed visually in comparison to untreated controls (herbicidal action in percent (%): 100% activity=the plants have died, 0% activity=like control plants). […] At the same time, inventive compounds leave Gramineae crops such as barley, wheat, rye, millet/Sorghum, corn or rice virtually undamaged when applied post-emergence, even at high active ingredient dosages. In addition, some substances are also harmless to dicotyledonous crops such as soya, cotton, oilseed rape, sugar beet or potatoes. Some of the compounds according to the invention have high selectivity and are therefore suitable for controlling unwanted vegetation in agricultural crops by the post-emergence method. The data of Tables B18 to B34 below illustrate, in an exemplary manner, the […] herbicidal action of the compounds according to the invention, the herbicidal activity being stated in percent.

STEME [2] = assay: Pre-emergence action against STEME; format: in vivo, Stellaria media; details: Dosage 320 g/ha, pre-emergence
Source text: (§2) Seeds of monocotyledonous and dicotyledonous weed plants and crop plants are laid out in sandy loam soil in wood-fiber pots and covered with soil. The compounds of the invention, formulated in the form of wettable powders (WP) or as emulsion concentrates (EC), are then applied to the surface of the covering soil in the form of an aqueous suspension or emulsion at a water application rate equating to […], with addition of 0.2% wetting agent. After the treatment, the pots are placed in a greenhouse and kept under good growth conditions for the trial plants. The damage to the test plants is scored visually after a test period of 3 weeks by comparison with untreated controls (herbicidal activity in percent (%): 100% activity=the plants have died, 0% activity=like control plants).

ABUTH [3] = assay: Post-emergence action against ABUTH; format: in vivo, Abutilon theophrasti; details: post-emergence, dosage 80 g/ha, visual assessment about 3 weeks after treatment vs untreated controls
Description: as §1

MATIN [4] = assay: Pre-emergence action against MATIN; format: in vivo, Matricaria inodora; details: Dosage 320 g/ha, pre-emergence
Source text: as §2

AMARE [5] = assay: Pre-emergence action against AMARE; format: in vivo, Amaranthus retroflexus; details: pre-emergence, dosage 320 g/ha, scored visually after 3 weeks vs untreated controls
Source text: as §2

ECHCG [6] = assay: Post-emergence action against ECHCG; format: in vivo, Echinochloa crus-galli; details: post-emergence, dosage 80 g/ha, visual assessment about 3 weeks after treatment vs untreated controls
Description: as §1

VERPE [7] = assay: Pre-emergence action against VERPE; format: in vivo, Veronica persica; details: Dosage 320 g/ha, pre-emergence
Source text: as §2

ECHCG [8] = assay: Pre-emergence action against ECHCG; format: in vivo, Echinochloa crus-galli; details: pre-emergence, dosage 320 g/ha, scored visually after 3 weeks vs untreated controls
Source text: as §2

AMARE [9] = assay: Post-emergence action against AMARE; format: in vivo, Amaranthus retroflexus; details: post-emergence, dosage 80 g/ha, visual assessment about 3 weeks after treatment vs untreated controls
Description: as §1

ALOMY = assay: Pre-emergence action against ALOMY; format: in vivo, Alopecurus myosuroides; details: dosage 320 g/ha; pre-emergence; scored visually after 3 weeks vs untreated controls; 100% = plants have died, 0% = like control plants
Source text: as §2

STEME [10] = assay: Post-emergence action against STEME; format: in vivo, Stellaria media; details: post-emergence, dosage 80 g/ha
Description: as §1

PHBPU [11] = assay: Post-emergence action against PHBPU; format: in vivo, Pharbitis purpurea; details: post-emergence, dosage 80 g/ha
Description: as §1

CYPES [12] = assay: Post-emergence action against CYPES; format: in vivo, Cyperus esculentus; details: post-emergence, dosage 80 g/ha, visual assessment about 3 weeks after treatment vs untreated controls
Description: as §1

MATIN [13] = assay: Post-emergence action against MATIN; format: in vivo, Matricaria inodora; details: post-emergence, dosage 80 g/ha, visual assessment about 3 weeks after treatment vs untreated controls
Description: as §1

CYPES [14] = assay: Pre-emergence action against CYPES; format: in vivo, Cyperus esculentus; details: pre-emergence, dosage 320 g/ha, scored visually after 3 weeks vs untreated controls
Source text: as §2

VIOTR [15] = assay: Pre-emergence action against VIOTR; format: in vivo, Viola tricolor; details: Dosage 320 g/ha, pre-emergence
Source text: as §2

ABUTH [16] = assay: Pre-emergence action against ABUTH; format: in vivo, Abutilon theophrasti; details: pre-emergence, dosage 320 g/ha, scored visually after 3 weeks vs untreated controls
Source text: as §2

POLCO = assay: Pre-emergence action against POLCO; format: in vivo, Polygonum convolvulus; details: Dosage 320 g/ha, pre-emergence
Source text: as §2

SETVI = assay: Pre-emergence action against SETVI; format: in vivo, Setaria viridis; details: pre-emergence, dosage 320 g/ha, scored visually after 3 weeks vs untreated controls
Source text: as §2

PHBPU [17] = assay: Pre-emergence action against PHBPU; format: in vivo, Pharbitis purpurea; details: Dosage 320 g/ha, pre-emergence
Source text: as §2

VERPE [18] = assay: Post-emergence action against VERPE; format: in vivo, Veronica persica; details: dosage 80 g/ha
Description: as §1

| Structure (SMILES) | Post-emergence action against VIOTR (VIOTR [1]) | Pre-emergence action against STEME (STEME [2]) | Post-emergence action against ABUTH (herbicidal action in percent) (ABUTH [3]) | Pre-emergence action against MATIN (MATIN [4]) | Pre-emergence action against AMARE (herbicidal activity) (AMARE [5]) | Post-emergence action against ECHCG (herbicidal action in percent) (ECHCG [6]) | Pre-emergence action against VERPE (VERPE [7]) | Pre-emergence action against ECHCG (herbicidal activity) (ECHCG [8]) | Post-emergence action against AMARE (herbicidal action in percent) (AMARE [9]) | Pre-emergence action against ALOMY (herbicidal activity in percent) (ALOMY) | Post-emergence action against STEME (STEME [10]) | Post-emergence action against PHBPU (PHBPU [11]) | Post-emergence action against MATIN (herbicidal action in percent) (MATIN [13]) | Pre-emergence action against CYPES (herbicidal activity) (CYPES [14]) | Pre-emergence action against VIOTR (VIOTR [15]) | Pre-emergence action against ABUTH (herbicidal activity) (ABUTH [16]) | Pre-emergence action against POLCO (POLCO) | SETVI (Table B8, pre-emergence herbicidal activity) (SETVI) | other results |
| --- | --- | --- | --- | --- | --- | --- | --- | --- | --- | --- | --- | --- | --- | --- | --- | --- | --- | --- | --- |
| CCC(=O)c1c(C)ccc(C(=O)Nc2nnnn2CC)c1Cl [2-135] | 90 | 90% | 80% | 90% | 100% | 90% | 90% | 90% | 90% | 90% | 100 | 90 | 90% |  |  |  |  |  | Post-emergence action against CYPES (herbicidal action in percent) (CYPES [12]): 80% |
| CCn1nnnc1NC(=O)c1ccc(C(F)(F)F)c(C(=O)C(C)(C)C)c1Cl [2-143] |  | 100% |  | 100% | 100% |  | 100% | 90% |  |  | 90 |  |  | 90% | 100% | 100% | 100% | 80% |  |
| CCCn1nnnc1NC(=O)c1ccc(C)c(C(=O)C2CC2)c1Cl [3-136] | 80 |  |  | 90% | 90% | 80% |  | 80% | 80% |  | 100 | 90 | 90% |  |  | 80% |  |  | Pre-emergence action against PHBPU (PHBPU [17]): 90%; Post-emergence action against VERPE (VERPE [18]): 80 |
| CCCn1nnnc1NC(=O)c1ccc(C)c(C(C)=O)c1C [3-1] | 100 | 90% | 80% | 100% | 100% | 100% |  | 90% | 90% | 90% | 90 | 80 | 100% | 90% | 100% | 100% | 90% | 90% |  |
